# Source: the supplement of paper PMC10307832
# Key:
# Assay in all cases: relative viability (nuclei count vs DMSO), 5 days (fraction); higher = more cells survive
# 201T = test system: 201T
# Method in brief: (§1)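 Five library-drug doses in √10 steps were combined with a fixed anchor-drug dose, or a single drug was given alone, by pin tool to lung cancer cell lines in 1536-well plates the day after seeding. Nuclei were stained and counted after 5 days. Relative viability is the nuclei count in treated wells over that in vehicle wells, taken as the median of duplicate plates.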
# COR-L23 = test system: COR-L23
# Method in brief: as §1
# H3255 = test system: H3255
# Method in brief: as §1
# HARA = test system: HARA
# Method in brief: as §1
# HCC-366 = test system: HCC-366
# Method in brief: as §1
# HCC-78 = test system: HCC-78
# Method in brief: as §1
# LU99A = test system: LU99A
# Method in brief: as §1
# NCI-H1650 = test system: NCI-H1650
# Method in brief: as §1
# NCI-H1651 = test system: NCI-H1651
# Method in brief: as §1
# NCI-H1755 = test system: NCI-H1755
# Method in brief: as §1
# NCI-H1793 = test system: NCI-H1793
# Method in brief: as §1
# NCI-H2085 = test system: NCI-H2085
# Method in brief: as §1
# NCI-H2087 = test system: NCI-H2087
# Method in brief: as §1
# NCI-H23 = test system: NCI-H23
# Method in brief: as §1
# NCI-H3122 = test system: NCI-H3122
# Method in brief: as §1
# NCI-H322M = test system: NCI-H322M
# Method in brief: as §1
# NCI-H358 = test system: NCI-H358
# Method in brief: as §1
# NCI-H460 = test system: NCI-H460
# Method in brief: as §1
# NCI-H522 = test system: NCI-H522
# Method in brief: as §1
# NCI-H596 = test system: NCI-H596
# Method in brief: as §1
# NCI-H650 = test system: NCI-H650
# Method in brief: as §1
# PC-3 [JPC-3] = test system: PC-3 [JPC-3]
# Method in brief: as §1
# SK-LU-1 = test system: SK-LU-1
# Method in brief: as §1
smiles,measurement,setting,value
CN1CCN(CCOc2cc(OC3CCOCC3)c3c(Nc4c(Cl)ccc5c4OCO5)ncnc3c2)CC1 [Saracatinib] + Cc1nc(Nc2ncc(C(=O)Nc3c(C)cccc3Cl)s2)cc(N2CCN(CCO)CC2)n1 [Dasatinib] (partner 0.075 µM),relative viability,201T; first compound 0.02 µM,0.602
same,relative viability,201T; first compound 0.2 µM,0.567
same,relative viability,201T; first compound 0.6325 µM,0.57
same,relative viability,201T; first compound 2 µM,0.489
same,relative viability,COR-L23; first compound 0.02 µM,0.553
same,relative viability,COR-L23; first compound 0.2 µM,0.533
same,relative viability,COR-L23; first compound 0.6325 µM,0.542
same,relative viability,COR-L23; first compound 2 µM,0.478
same,relative viability,H3255; first compound 0.02 µM,0.389
same,relative viability,H3255; first compound 0.2 µM,0.303
same,relative viability,H3255; first compound 0.6325 µM,0.344
same,relative viability,H3255; first compound 2 µM,0.267
same,relative viability,HARA; first compound 0.02 µM,0.225
same,relative viability,HARA; first compound 0.2 µM,0.224
same,relative viability,HARA; first compound 0.6325 µM,0.272
same,relative viability,HARA; first compound 2 µM,0.23
same,relative viability,HCC-366; first compound 0.02 µM,0.636
same,relative viability,HCC-366; first compound 0.6325 µM,0.678
same,relative viability,HCC-366; first compound 2 µM,0.607
same,relative viability,HCC-78; first compound 0.02 µM,0.477
same,relative viability,HCC-78; first compound 0.6325 µM,0.421
same,relative viability,HCC-78; first compound 2 µM,0.352
same,relative viability,LU99A; first compound 0.02 µM,0.567
same,relative viability,LU99A; first compound 0.2 µM,0.578
same,relative viability,LU99A; first compound 0.6325 µM,0.652
same,relative viability,LU99A; first compound 2 µM,0.558
same,relative viability,NCI-H1650; first compound 0.02 µM,0.378
same,relative viability,NCI-H1650; first compound 0.2 µM,0.299
same,relative viability,NCI-H1650; first compound 0.6325 µM,0.359
same,relative viability,NCI-H1650; first compound 2 µM,0.371
same,relative viability,NCI-H1651; first compound 0.02 µM,0.565
same,relative viability,NCI-H1651; first compound 0.2 µM,0.37
same,relative viability,NCI-H1651; first compound 0.6325 µM,0.439
same,relative viability,NCI-H1651; first compound 2 µM,0.406
same,relative viability,NCI-H1755; first compound 0.02 µM,0.422
same,relative viability,NCI-H1755; first compound 0.2 µM,0.318
same,relative viability,NCI-H1755; first compound 0.6325 µM,0.439
same,relative viability,NCI-H1755; first compound 2 µM,0.404
same,relative viability,NCI-H1793; first compound 0.02 µM,0.439
same,relative viability,NCI-H1793; first compound 0.6325 µM,0.426
same,relative viability,NCI-H1793; first compound 2 µM,0.341
same,relative viability,NCI-H2085; first compound 0.02 µM,0.286
same,relative viability,NCI-H2085; first compound 0.2 µM,0.321
same,relative viability,NCI-H2085; first compound 0.6325 µM,0.345
same,relative viability,NCI-H2085; first compound 2 µM,0.3
same,relative viability,NCI-H2087; first compound 0.02 µM,0.807
same,relative viability,NCI-H2087; first compound 0.2 µM,0.69
same,relative viability,NCI-H2087; first compound 0.6325 µM,0.928
same,relative viability,NCI-H2087; first compound 2 µM,0.656
same,relative viability,NCI-H23; first compound 0.02 µM,0.805
same,relative viability,NCI-H23; first compound 0.2 µM,0.613
same,relative viability,NCI-H23; first compound 0.6325 µM,0.837
same,relative viability,NCI-H23; first compound 2 µM,0.789
same,relative viability,NCI-H3122; first compound 0.02 µM,0.879
same,relative viability,NCI-H3122; first compound 0.2 µM,0.666
same,relative viability,NCI-H3122; first compound 0.6325 µM,0.562
same,relative viability,NCI-H3122; first compound 2 µM,0.655
same,relative viability,NCI-H322M; first compound 0.02 µM,0.245
same,relative viability,NCI-H322M; first compound 0.2 µM,0.196
same,relative viability,NCI-H322M; first compound 0.6325 µM,0.211
same,relative viability,NCI-H322M; first compound 2 µM,0.215
same,relative viability,NCI-H358; first compound 0.02 µM,0.168
same,relative viability,NCI-H358; first compound 0.2 µM,0.16
same,relative viability,NCI-H358; first compound 0.6325 µM,0.18
same,relative viability,NCI-H358; first compound 2 µM,0.103
same,relative viability,NCI-H460; first compound 0.02 µM,0.587
same,relative viability,NCI-H460; first compound 0.2 µM,0.418
same,relative viability,NCI-H460; first compound 0.6325 µM,0.603
same,relative viability,NCI-H460; first compound 2 µM,0.46
same,relative viability,NCI-H522; first compound 0.02 µM,0.88
same,relative viability,NCI-H522; first compound 0.6325 µM,0.864
same,relative viability,NCI-H522; first compound 2 µM,0.8
same,relative viability,NCI-H596; first compound 0.02 µM,0.558
same,relative viability,NCI-H596; first compound 0.2 µM,0.659
same,relative viability,NCI-H596; first compound 0.6325 µM,0.607
same,relative viability,NCI-H596; first compound 2 µM,0.57
same,relative viability,NCI-H650; first compound 0.02 µM,0.491
same,relative viability,NCI-H650; first compound 0.2 µM,0.416
same,relative viability,NCI-H650; first compound 0.6325 µM,0.477
same,relative viability,NCI-H650; first compound 2 µM,0.429
same,relative viability,PC-3 [JPC-3]; first compound 0.02 µM,0.941
same,relative viability,PC-3 [JPC-3]; first compound 0.2 µM,0.952
same,relative viability,PC-3 [JPC-3]; first compound 0.6325 µM,0.682
same,relative viability,PC-3 [JPC-3]; first compound 2 µM,0.595
same,relative viability,SK-LU-1; first compound 0.02 µM,0.148
same,relative viability,SK-LU-1; first compound 0.2 µM,0.14
same,relative viability,SK-LU-1; first compound 0.6325 µM,0.138
same,relative viability,SK-LU-1; first compound 2 µM,0.146
